In patent US7709495B2, “Methods and reagents for the treatment of inflammatory disorders” (CombinatoRx, Incorporated, priority 2003, dated 2010):
Like-named read-outs stand apart in the source and are kept apart here.

Experiments:
Assay type in all cases: cell-based
[1] = tested on: TNFα secretion; assay: TNFα secretion assay (ELISA), phorbol 12-myristate 13-acetate/ionomycin stimulated white blood cells; details: Homo sapiens, PBMC, read-out: % Inhibition TNFα PBMC PI
Procedure: (§1) The compound dilution matrix was assayed for the suppression of phorbol 12-myristate 13 acetate/ionomycin stimulated IL-1 and TNFα secretion as well as the suppression of lipopolysaccharide-stimulated TNFα secretion from human white blood cells using the ELISA method, as described below.
(§2) A stock solution containing prednisolone (0.36 mg/ml) was prepared in DMSO. A stock solution containing ibudilast (1.84 mg/ml) was prepared in DMSO. Master plates were prepared for dilutions of the stock solutions above.
(§3) The final single agent plates were generated by transferring 1 μL of stock solution from the specific master plate to separate dilution plates containing 99 μL of media (RPMI; Gibco BRL, #11875-085), 10% fetal bovine serum (Gibco BRL, #25140-097), 2% penicillin/streptomycin (Gibco BRL, #15140-122)) using the Packard Mini-Trak liquid handler. The dilution plates were then mixed and a 10 μL aliquot transferred from each dilution plate to the final assay plate (polystyrene 384-well plate (NalgeNunc)), which had been pre-filled with 30 μL/well RPMI media containing 33 ng/mL phorbol 12-myristate 13-acetate (Sigma, P-1585) and 2.475 ng/mL ionomycin (Sigma, I-0634) or alternatively for the LPS stimulated assay RPMI media containing 2 μg/ml lipopolysaccharide (Sigma, L-4130).
The effects of test compound combinations on TNFα secretion were assayed in white blood cells from human buffy coat stimulated with phorbol 12-myistate 13-acetate, or lipopolysaccharide as follows. Human white blood cells from buffy coat were diluted 1:50 in media (RPMI; Gibco BRL, #11875-085), 10% fetal bovine serum (Gibco BRL, #25140-097), 2% penicillin/streptomycin (Gibco BRL, #15140-122)) and 50 μL of the diluted white blood cells were placed in each well of the final assay plate created in the above section. After 16-18 hours of incubation at 37° C. with 5% CO2 in a humidified incubator, the plate was centrifuged and the supernatant transferred to a white opaque polystyrene 384 well plate (NalgeNunc, Maxisorb) coated with an anti-TNFα antibody (PharMingen, #551220). After a two-hour incubation, the plate was washed (Tecan Powerwasher 384) with PBS containing 0.1% Tween 20 and incubated for one additional hour with biotin labeled anti-TNFα antibody (PharMingen, #554511) and HRP coupled to streptavidin (PharMingen, #13047E). The plate was then washed again with 0.1% Tween 20/PBS. An HRP-luminescent substrate was added to each well, and the light intensity of each well was measured using a plate luminometer.
(§4) The percent inhibition (% I) for each well was calculated using the following formula: % I=[(avg. untreated wells−treated well)/(avg. untreated wells)]×100
(§5) The average untreated well value (avg. untreated wells) is the arithmetic mean of 30 wells from the same assay plate treated with vehicle alone.
TNFα secretion was measured by ELISA as described above after stimulation with phorbol 12-myristate 13-acetate and ionomycin. The effects of varying concentrations of ibudilast, prednisolone and a combination of ibudilast and prednisolone were compared to control wells.

[2] = tested on: IL-1 secretion; assay: IL-1 secretion assay (ELISA), LPS stimulated white blood cells; details: Homo sapiens, PBMC
Procedure: as §1, §2, §3
The effects of test compound combinations on IL-1 secretion were assayed in white blood cells from human buffy coat stimulated with LPS, as follows. Human white blood cells from buffy coat were diluted 1:50 in media (RPMI; Gibco BRL, #11875-085), 10% fetal bovine serum (Gibco BRL, #25140-097), 2% penicillin/streptomycin (Gibco BRL, #15140-122)) and 50 μL of the diluted white blood cells was placed in each well of the final assay plate created in the above section. After 16-18 hours of incubation at 37° C. in a humidified incubator, the plate was centrifuged and the supernatant was transferred to a white opaque 384-well plate (NalgeNunc, MAXISORB) coated with an anti-IL-1 antibody (R&D Systems, MAB601). After a two-hour incubation, the plate was washed (Tecan Powerwasher 384) with PBS containing 0.1% Tween 20 and incubated for an additional one hour with a biotin labeled anti-IL-1 antibody (R&D Systems, BAF201) and horse radish peroxidase coupled to streptavidin (PharMingen, #554066). The plate was then washed again with 0.1% Tween 20/PBS, and an HRP-luminescent substrate was added to each well. Light intensity was then measured using a plate luminometer.
as §4, §5
IL-1 secretion was measured by ELISA as described above after stimulation with lipopolysaccharide. The effects of varying concentrations of ibudilast, prednisolone and a combination of ibudilast and prednisolone were compared to control wells.

[3] = tested on: white blood cells from human buffy coat; assay: alamarBlue assay (toxicity/cell viability), lipopolysaccharide stimulated; details: PBMC, read-out: % Inhibition of Proliferation of PBMC LPS
Procedure: as §2, §3, §4, §5
The toxicity of the test combination were assessed using alamarBlue® assayed in white blood cells from human buffy coat stimulated with LPS or phorbol 12-myistate 13-acetate and Ionomycin, as follows. Human white blood cells from buffy coat were diluted 1:50 in media (RPMI; Gibco BRL, #11875-085), 10% fetal bovine serum (Gibco BRL, #25140-097), 2% penicillin/streptomycin (Gibco BRL, #15140-122)) and 50 μL of the diluted white blood cells was placed in each well of the final assay plate created in the above section. After 16-18 hours of incubation at 37° C. with 5% CO2 in a humidified incubator, 5 μl of alamarBlue® (BioSource Intl. Inc., DAL 1100) was added to all of the wells. After 20-24 hours of incubation in 37° C. in a humidified incubator, fluorescence was then measured using a plate fluorometer.
Cell viability was measured the alamarBlue® asay described above after stimulation with lipopolysaccharide. The effects of varying concentrations of ibudilast, prednisolone and a combination of ibudilast and prednisolone were compared to control wells. These wells were stimulated with lipopolysaccharide, but not receive ibudilast or prednisolone.

## CC(C)C(=O)c1c(C(C)C)nn2ccccc12 [Ibudilast, ibudilast]
[1]; ibudilast 0.062 μM alone
  inhibition at 0.062 µM: 2.8%
[1]; ibudilast 0.12 μM alone
  inhibition at 0.12 µM: 2.5%
[1]; ibudilast 0.25 μM alone
  inhibition at 0.25 µM: 6.5%
[1]; ibudilast 0.5 μM alone
  inhibition at 0.5 µM: 18%
[1]; ibudilast 1 μM alone
  inhibition at 1 µM: 28%
[1]; ibudilast 2 μM alone
  inhibition at 2 µM: 31%
[1]; ibudilast 4 μM alone
  inhibition at 4 µM: 33%
[1]; ibudilast 8 μM alone
  inhibition at 8 µM: 40%
[2]; ibudilast 0.062 μM alone
  inhibition at 0.062 µM: 19%
[2]; ibudilast 0.12 μM alone
  inhibition at 0.12 µM: -1.6%
[2]; ibudilast 0.25 μM alone
  inhibition at 0.25 µM: 20%
[2]; ibudilast 0.5 μM alone
  inhibition at 0.5 µM: 18%
[2]; ibudilast 1 μM alone
  inhibition at 1 µM: 41%
[2]; ibudilast 2 μM alone
  inhibition at 2 µM: 42%
[2]; ibudilast 4 μM alone
  inhibition at 4 µM: 50%
[2]; ibudilast 8 μM alone
  inhibition at 8 µM: 61%
[3]; ibudilast 0.062 μM alone
  inhibition at 0.062 µM: -4.6%
[3]; ibudilast 0.12 μM alone
  inhibition at 0.12 µM: -1.5%
[3]; ibudilast 0.25 μM alone
  inhibition at 0.25 µM: -1.8%
[3]; ibudilast 0.5 μM alone
  inhibition at 0.5 µM: -3.8%
[3]; ibudilast 1 μM alone
  inhibition at 1 µM: -2.9%
[3]; ibudilast 2 μM alone
  inhibition at 2 µM: 2.6%
[3]; ibudilast 4 μM alone
  inhibition at 4 µM: -2.4%
[3]; ibudilast 8 μM alone
  inhibition at 8 µM: 0.069%

## C[C@]12C=CC(=O)C=C1CC[C@@H]1[C@@H]2[C@@H](O)C[C@@]2(C)[C@H]1CC[C@]2(O)C(=O)CO [Prednisolone, prednisolone]
[1]; prednisolone 0.0078 μM alone
  inhibition at 0.0078 µM: 12%
[1]; prednisolone 0.016 μM alone
  inhibition at 0.016 µM: 17%
[1]; prednisolone 0.031 μM alone
  inhibition at 0.031 µM: 22%
[1]; prednisolone 0.062 μM alone
  inhibition at 0.062 µM: 22%
[1]; prednisolone 0.12 μM alone
  inhibition at 0.12 µM: 29%
[1]; prednisolone 0.25 μM alone
  inhibition at 0.25 µM: 32%
[1]; prednisolone 0.5 μM alone
  inhibition at 0.5 µM: 33%
[1]; prednisolone 1 μM alone
  inhibition at 1 µM: 36%
[2]; prednisolone 0.0078 μM alone
  inhibition at 0.0078 µM: 18%
[2]; prednisolone 0.016 μM alone
  inhibition at 0.016 µM: 25%
[2]; prednisolone 0.031 μM alone
  inhibition at 0.031 µM: 50%
[2]; prednisolone 0.062 μM alone
  inhibition at 0.062 µM: 69%
[2]; prednisolone 0.12 μM alone
  inhibition at 0.12 µM: 70%
[2]; prednisolone 0.25 μM alone
  inhibition at 0.25 µM: 74%
[2]; prednisolone 0.5 μM alone
  inhibition at 0.5 µM: 77%
[2]; prednisolone 1 μM alone
  inhibition at 1 µM: 84%
[3]; prednisolone 0.0078 μM alone
  inhibition at 0.0078 µM: -1.7%
[3]; prednisolone 0.016 μM alone
  inhibition at 0.016 µM: -1.5%
[3]; prednisolone 0.031 μM alone
  inhibition at 0.031 µM: 0.64%
[3]; prednisolone 0.062 μM alone
  inhibition at 0.062 µM: -1.2%
[3]; prednisolone 0.12 μM alone
  inhibition at 0.12 µM: -1.8%
[3]; prednisolone 0.25 μM alone
  inhibition at 0.25 µM: -1.3%
[3]; prednisolone 0.5 μM alone
  inhibition at 0.5 µM: -3.3%
[3]; prednisolone 1 μM alone
  inhibition at 1 µM: -3.8%
